Experimental findings from ChEMBL document CHEMBL5030563, “Structure-Based Design of Dual-Acting Compounds Targeting Adenosine A2A Receptor and Histone Deacetylase as Novel Tumor Immunotherapeutic Agents” (J Med Chem, 2021) are described below.

In one series the test system is MC-38. In words: Antiproliferative activity against mouse MC38 cells measured after 72 hrs by CCK8 assay. It counts as functional. Conditions: Mus musculus, MC-38. In general terms: Formazan colour is commonly taken as a measure of viable cells.
The target of the next series is Histone deacetylase 1 (Homo sapiens, UniProt Q13547). In words: Inhibition of HDAC1 (unknown origin) assessed as release of 7-amino-4-methylcoumarin incubated in room temperature for 15 min measured by Spectra max microtitre plate reader.
Sequence of Histone deacetylase 1 (Q13547 whole entry): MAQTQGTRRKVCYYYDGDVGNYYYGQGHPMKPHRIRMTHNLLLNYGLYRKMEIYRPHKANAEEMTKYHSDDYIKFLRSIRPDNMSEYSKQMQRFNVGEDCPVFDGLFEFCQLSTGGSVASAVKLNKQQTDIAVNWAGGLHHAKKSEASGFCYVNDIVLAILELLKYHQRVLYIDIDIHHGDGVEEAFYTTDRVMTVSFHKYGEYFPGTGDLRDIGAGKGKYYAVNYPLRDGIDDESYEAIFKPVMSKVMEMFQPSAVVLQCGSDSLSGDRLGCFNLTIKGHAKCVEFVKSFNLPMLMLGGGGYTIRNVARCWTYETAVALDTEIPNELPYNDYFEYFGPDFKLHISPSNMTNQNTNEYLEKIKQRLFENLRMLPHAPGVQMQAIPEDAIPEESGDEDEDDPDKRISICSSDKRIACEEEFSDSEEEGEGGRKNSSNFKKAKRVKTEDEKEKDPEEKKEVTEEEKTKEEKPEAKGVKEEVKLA
Series [1] has as its target T1, Protein deacetylase HDAC6 (Homo sapiens, UniProt Q9UBN7).
T1 sequence (Q9UBN7 whole entry): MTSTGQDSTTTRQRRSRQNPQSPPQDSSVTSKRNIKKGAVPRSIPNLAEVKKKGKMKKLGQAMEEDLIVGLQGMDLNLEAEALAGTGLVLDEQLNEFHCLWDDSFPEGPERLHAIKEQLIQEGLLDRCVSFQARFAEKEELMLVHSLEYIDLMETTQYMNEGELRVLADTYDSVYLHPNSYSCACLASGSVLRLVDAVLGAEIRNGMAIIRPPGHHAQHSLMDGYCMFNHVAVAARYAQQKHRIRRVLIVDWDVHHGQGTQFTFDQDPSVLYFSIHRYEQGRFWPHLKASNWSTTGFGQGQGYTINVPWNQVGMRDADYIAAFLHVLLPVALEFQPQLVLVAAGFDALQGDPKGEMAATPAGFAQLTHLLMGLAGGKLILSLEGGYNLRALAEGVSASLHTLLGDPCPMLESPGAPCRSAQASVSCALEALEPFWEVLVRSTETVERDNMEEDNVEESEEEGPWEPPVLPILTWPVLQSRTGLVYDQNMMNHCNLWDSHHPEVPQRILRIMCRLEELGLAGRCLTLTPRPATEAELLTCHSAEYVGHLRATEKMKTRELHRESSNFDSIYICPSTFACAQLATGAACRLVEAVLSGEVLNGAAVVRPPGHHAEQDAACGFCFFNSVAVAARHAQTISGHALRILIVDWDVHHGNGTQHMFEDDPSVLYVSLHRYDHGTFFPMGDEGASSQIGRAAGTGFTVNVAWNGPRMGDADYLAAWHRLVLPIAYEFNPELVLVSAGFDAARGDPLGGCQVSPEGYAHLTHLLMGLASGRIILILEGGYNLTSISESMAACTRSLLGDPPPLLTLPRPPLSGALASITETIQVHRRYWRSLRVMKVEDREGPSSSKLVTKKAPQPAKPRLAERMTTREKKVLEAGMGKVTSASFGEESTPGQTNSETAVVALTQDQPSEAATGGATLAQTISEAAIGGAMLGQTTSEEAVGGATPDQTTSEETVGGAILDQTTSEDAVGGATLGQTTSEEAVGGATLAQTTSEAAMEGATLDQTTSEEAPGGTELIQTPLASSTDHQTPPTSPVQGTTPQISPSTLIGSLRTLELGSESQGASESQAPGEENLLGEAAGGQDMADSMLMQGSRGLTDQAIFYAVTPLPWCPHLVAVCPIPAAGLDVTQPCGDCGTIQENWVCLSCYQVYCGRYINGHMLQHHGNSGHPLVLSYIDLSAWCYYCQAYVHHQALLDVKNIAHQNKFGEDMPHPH
In words: Inhibition of HDAC6 (unknown origin) assessed as release of 7-amino-4-methylcoumarin incubated in room temperature for 15 min measured by Spectra max microtitre plate reader.

The next series has as its target Adenosine receptor A2a (Homo sapiens, UniProt P29274). In words: Displacement of [3H]SCH58261 from adenosine A2A receptor membrane (unknown origin) measured after 60 mins by scintillation counting analysis. It counts as cell membranes. (In general: Loss of bound radioactivity is the signal in a displacement assay; it reports binding, not function.)
The subject of another series is CT26. In words: Antiproliferative activity against mouse CT26 cells measured after 72 hrs by CCK8 assay. It counts as functional. The note with it: Mus musculus, CT26.
Series [2] is described as follows: AUC (0 to infinity) in ICR mouse at 20 mg/kg, po by LC-MS/MS analysis. The arrangement: time infinity, route oral, dose 20 mg/kg. It counts as ADME, organism-based. Conditions: in vivo.
Series [3] in a line: Elimination rate constant in ICR mouse at 20 mg/kg, po up to 24 hrs by LC-MS/MS analysis. It counts as ADME, organism-based. The note with it: in vivo.
Series [4] is described as follows: AUC (0 to t) in ICR mouse at 20 mg/kg, po by LC-MS/MS analysis. It is filed as ADME, organism-based. The note with it: in vivo. On the set-up: dose 20 mg/kg.
The nature of series [5]: Tmax in ICR mouse at 20 mg/kg, po by LC-MS/MS analysis. It is filed as ADME, organism-based. The note with it: in vivo.
Series [6] can be described thus: Cmax in ICR mouse at 20 mg/kg, po by LC-MS/MS analysis. It is filed as ADME, organism-based. On the set-up: route oral, dose 20 mg/kg. The note with it: in vivo.
Series [7] is described as follows: MRT in ICR mouse at 20 mg/kg, po by LC-MS/MS analysis. It counts as ADME, organism-based. Conditions: in vivo.
Series [8] can be described thus: Half life in ICR mouse at 20 mg/kg, po by LC-MS/MS analysis. It is filed as ADME, organism-based. The note with it: in vivo.
The target of a further series is T2, Adenosine receptor A3 (Homo sapiens, UniProt P0DMS8).
T2 sequence (P0DMS8 whole entry): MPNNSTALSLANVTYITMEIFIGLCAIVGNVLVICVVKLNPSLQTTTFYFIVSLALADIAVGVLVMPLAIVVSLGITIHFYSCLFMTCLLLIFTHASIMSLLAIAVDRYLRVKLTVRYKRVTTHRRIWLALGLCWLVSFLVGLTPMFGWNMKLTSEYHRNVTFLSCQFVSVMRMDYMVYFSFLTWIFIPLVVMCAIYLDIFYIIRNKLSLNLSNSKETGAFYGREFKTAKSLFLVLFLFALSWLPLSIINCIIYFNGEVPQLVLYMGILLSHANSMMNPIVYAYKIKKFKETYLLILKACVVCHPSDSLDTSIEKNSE
In words: Displacement of [3H]DPCPX from human adenosine A3 receptor membrane (unknown origin) measured after 60 mins by scintillation counting analysis. It counts as cell membranes.

Sequence of Adenosine receptor A2a (P29274 whole entry): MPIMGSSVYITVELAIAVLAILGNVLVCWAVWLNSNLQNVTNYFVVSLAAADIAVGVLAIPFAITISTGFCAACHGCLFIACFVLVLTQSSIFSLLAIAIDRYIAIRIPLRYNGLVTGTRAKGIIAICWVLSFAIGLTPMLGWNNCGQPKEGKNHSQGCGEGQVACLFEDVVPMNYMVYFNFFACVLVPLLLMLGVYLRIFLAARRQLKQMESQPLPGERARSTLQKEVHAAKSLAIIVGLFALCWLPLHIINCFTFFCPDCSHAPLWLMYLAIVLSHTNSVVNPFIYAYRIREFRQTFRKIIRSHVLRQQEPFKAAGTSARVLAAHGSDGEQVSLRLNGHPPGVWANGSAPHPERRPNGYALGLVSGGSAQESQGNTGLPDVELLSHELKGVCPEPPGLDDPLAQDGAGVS

With `Nc1ccccc1NC(=O)c1ccc(CCCNc2nc(N)n3nc(-c4ccco4)nc3n2)cc1`, the GI50 (commonly the concentration giving 50% growth inhibition) in the series on MC-38 was found to be 25400 nM; in the series on CT26 it was 25200 nM. Besides, the 50% inhibitory concentration (IC50) (in general, the midpoint of a concentration-inhibition curve) on Histone deacetylase 1 is 59.5 nM; in [1], above 10000 nM. The affinity on Adenosine receptor A2a corresponds to a Ki of 3.9 nM.
Regarding `N#Cc1cccc(-c2nc3c4cnn(CCc5ccc(C(=O)Nc6ccccc6N)cc5)c4nc(N)n3n2)c1`, the concentration for 50% growth inhibition (GI50) was 5400 nM in the series on MC-38 and 6900 nM with CT26. In addition, the total exposure AUC(0-inf) (in general, total exposure, with the tail of the curve extrapolated) in series [2] was determined as 602 ng·h/mL. The k el at 24 h in series [3] was 5.67e-05 s⁻¹. Besides, the AUC(0-t) (commonly the area under the concentration-time curve up to a stated or last time point) in series [4] stood at 588 ng·h/mL. In addition, at Histone deacetylase 1, the IC50 is 113 nM. In addition, the Tmax (as a rule, the time from dosing to the highest level) in [5] is 0.25 h. The inhibitory constant (Ki) – broadly, the dissociation constant of the complex between target and ligand, obtained from inhibition or displacement – on Adenosine receptor A2a turned out to be 6.5 nM. For the same molecule, in series [6], the peak level (Cmax) was 598 ng/mL. In [7], the MRT (in general, a mean duration of stay, worked out from the concentration-time curve) was determined as 2.44 h. Besides, the half-life – broadly, the time needed for the level to fall by half in the phase considered – in series [8] was 4.08 h.
Turning to `Nc1nc2c(cnn2CCc2ccc(NC(=O)CCCCCCC(=O)NO)cc2)c2nc(-c3ccco3)nn12`, the concentration for 50% growth inhibition (GI50) in the series on MC-38 and in the series on CT26 was above 100000 nM each time. The IC50 stood at 8 nM on Histone deacetylase 1 and 5.9 nM in [1]. Also, at Adenosine receptor A2a, the affinity, expressed as Ki, was 4.9 nM.
On to `Nc1nc(NCCc2ccc(/C=C/C(=O)NO)cc2)nc2nc(-c3ccco3)nn12`, for which the GI50 was determined as 40500 nM in the series on MC-38 and 42900 nM in the series on CT26. The IC50 on Histone deacetylase 1 is 10.2 nM; in series [1], 69 nM. On Adenosine receptor A2a, this molecule came in with a Ki of 37.8 nM.
Turning to `CN(CCOc1ccc(C(=O)NO)cc1)c1nc(N)n2nc(-c3ccco3)nc2n1`, the GI50 with MC-38 and with CT26 was above 100000 nM throughout. Moreover, the figures for the IC50 (at Histone deacetylase 1; in series [1]) were 21.5 nM and 18 nM, respectively. This molecule also returned a Ki at Adenosine receptor A2a of 15.7 nM.
For the molecule `Nc1nc(NCCc2ccc(OCCCCCC(=O)NO)cc2)nc2nc(-c3ccco3)nn12`, the GI50 in the series with MC-38 is 15000 nM; in the series with CT26, 25900 nM. The IC50 was found to be 86.7 nM at Histone deacetylase 1 and 8 nM in series [1]. On Adenosine receptor A2a, this molecule displayed a Ki of 0.95 nM.
With `Nc1nc2c(cnn2CCc2ccccc2)c2nc(-c3ccco3)nn12` [SCH-58261], the 50% growth inhibitory concentration (GI50) in the series on MC-38 and in the series on CT26 was above 100000 nM throughout. The same molecule returned a Ki on Adenosine receptor A3 above 10000 nM.
